The source of these data is ChEMBL document CHEMBL1132409, “Pharmacological treatment of obesity: therapeutic strategies” (J Med Chem, 1999).

SMILES strings stand for the structures.

As usually defined, the Ki is the equilibrium dissociation constant of an inhibitor or competing ligand from its target. Broadly, the IC50 is the concentration that inhibits the measured activity by half. What is called EC50 is the concentration that produces a half-maximal response. For orientation: ED50 means the dose at which the effect has come halfway, by size or by number of responders. As usually defined, the inhibition in vivo is the change of the read-out against control, counted positive when it falls.

Data set [1] addresses T1, Cholecystokinin receptor type A (Mus musculus, UniProt O08786).
T1 sequence (O08786 whole entry): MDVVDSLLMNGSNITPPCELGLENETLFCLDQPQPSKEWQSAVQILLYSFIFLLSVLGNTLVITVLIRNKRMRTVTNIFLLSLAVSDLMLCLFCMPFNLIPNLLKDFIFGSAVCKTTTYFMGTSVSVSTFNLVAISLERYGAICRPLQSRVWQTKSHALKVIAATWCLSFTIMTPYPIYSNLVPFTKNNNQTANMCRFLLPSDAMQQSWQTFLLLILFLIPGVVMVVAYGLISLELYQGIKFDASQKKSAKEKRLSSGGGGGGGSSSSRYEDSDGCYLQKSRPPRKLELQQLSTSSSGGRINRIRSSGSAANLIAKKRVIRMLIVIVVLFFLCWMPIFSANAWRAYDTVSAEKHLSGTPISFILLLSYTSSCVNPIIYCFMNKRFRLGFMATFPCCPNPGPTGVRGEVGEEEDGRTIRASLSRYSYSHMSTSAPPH
Description: Binding affinity in Cholecystokinin type A receptor binding assay […].

Data set [2] addresses T2, Beta-3 adrenergic receptor (Homo sapiens, UniProt P13945). Description: Binding affinity towards human Beta-3 adrenergic receptor.
Target sequence in this assay (P13945 whole entry): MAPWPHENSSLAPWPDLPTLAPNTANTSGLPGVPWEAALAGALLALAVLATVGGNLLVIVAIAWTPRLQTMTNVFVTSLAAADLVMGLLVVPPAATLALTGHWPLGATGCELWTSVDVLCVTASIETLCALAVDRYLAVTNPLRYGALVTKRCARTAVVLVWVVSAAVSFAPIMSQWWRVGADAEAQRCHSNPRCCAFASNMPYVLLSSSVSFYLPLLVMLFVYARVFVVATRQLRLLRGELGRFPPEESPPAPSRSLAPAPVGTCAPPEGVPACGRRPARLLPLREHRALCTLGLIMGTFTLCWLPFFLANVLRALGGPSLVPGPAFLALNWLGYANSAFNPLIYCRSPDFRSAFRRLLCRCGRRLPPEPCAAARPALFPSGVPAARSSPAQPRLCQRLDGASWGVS
Data set [3] addresses T3, Neuropeptide Y receptor type 1 (Homo sapiens, UniProt P25929).
T3 sequence (P25929 whole entry): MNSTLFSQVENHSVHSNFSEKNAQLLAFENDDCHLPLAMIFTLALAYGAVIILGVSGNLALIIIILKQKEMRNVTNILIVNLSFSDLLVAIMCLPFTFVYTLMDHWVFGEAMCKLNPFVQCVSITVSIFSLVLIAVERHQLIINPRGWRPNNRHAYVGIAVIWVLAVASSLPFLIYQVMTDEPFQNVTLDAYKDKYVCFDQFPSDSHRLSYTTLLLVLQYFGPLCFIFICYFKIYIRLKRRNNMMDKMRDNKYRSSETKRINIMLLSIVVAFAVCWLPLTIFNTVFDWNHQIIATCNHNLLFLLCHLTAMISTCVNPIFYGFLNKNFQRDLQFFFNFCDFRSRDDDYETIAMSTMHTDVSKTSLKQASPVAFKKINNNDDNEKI
The data set can be described thus: The compound was tested for the binding affinity against Neuropeptide Y receptor type 1.

Data set [4] has as its target T4, Neuropeptide Y receptor type 5 (Rattus norvegicus, UniProt Q63634).
T4 sequence (Q63634 whole entry): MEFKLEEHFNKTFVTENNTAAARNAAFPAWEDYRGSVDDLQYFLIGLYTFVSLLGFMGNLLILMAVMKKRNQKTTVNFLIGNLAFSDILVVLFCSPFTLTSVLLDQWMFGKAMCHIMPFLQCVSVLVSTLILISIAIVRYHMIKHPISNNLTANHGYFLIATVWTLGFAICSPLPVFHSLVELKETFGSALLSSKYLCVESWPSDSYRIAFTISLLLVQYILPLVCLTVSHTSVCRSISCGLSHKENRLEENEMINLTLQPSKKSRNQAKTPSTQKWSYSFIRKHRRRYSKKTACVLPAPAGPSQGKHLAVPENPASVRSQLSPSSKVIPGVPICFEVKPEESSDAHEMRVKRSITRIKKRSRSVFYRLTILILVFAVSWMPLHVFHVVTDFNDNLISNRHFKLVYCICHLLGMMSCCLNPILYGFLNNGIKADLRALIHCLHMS
The data set can be described thus: The compound was tested for the binding affinity against Neuropeptide Y receptor type 5 in rat.

For data set [5], the target named is T2, Beta-3 adrenergic receptor. Description: Binding affinity towards Beta-3 adrenergic receptor.
Target sequence in this assay (P13945 whole entry): as the sequence (P13945 whole entry) above
The target of data set [6] is T2, Beta-3 adrenergic receptor. Description: Beta-3 adrenergic receptor intrinsic activity relative to isoproterenol.
Target sequence in this assay (P13945 whole entry, looked up): as the sequence (P13945 whole entry) above
Data set [7] is described as follows: Oral bioavailability of the compound. It is filed as ADME, organism-based. The settings on record: in vivo.
Data set [8] has as its system Rhesus monkey. The data set can be described thus: Effective dose to stimulate lipolysis in Rhesus monkeys(iv). It is filed as functional, Cercopithecidae. The settings on record: Macaca mulatta.
Data set [9] in a line: Bioavailability in dog. The format is ADME, organism-based, Canis lupus familiaris. As to conditions: in vivo.
For data set [10], the target named is T5, Neuropeptide Y receptor type 1 (Rattus norvegicus, UniProt P21555).
T5 sequence (P21555 whole entry): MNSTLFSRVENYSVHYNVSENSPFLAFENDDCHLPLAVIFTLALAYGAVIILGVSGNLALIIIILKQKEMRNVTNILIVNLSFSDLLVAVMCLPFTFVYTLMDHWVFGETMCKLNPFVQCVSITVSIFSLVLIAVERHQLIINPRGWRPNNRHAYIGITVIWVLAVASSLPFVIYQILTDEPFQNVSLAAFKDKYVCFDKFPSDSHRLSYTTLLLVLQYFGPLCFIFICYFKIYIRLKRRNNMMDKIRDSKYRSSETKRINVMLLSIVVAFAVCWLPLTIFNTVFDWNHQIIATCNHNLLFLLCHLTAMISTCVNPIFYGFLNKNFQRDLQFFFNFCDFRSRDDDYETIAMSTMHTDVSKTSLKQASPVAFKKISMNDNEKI
Description: The compound was tested for the binding affinity against Neuropeptide Y receptor type 1 in rat.

Data set [11] can be described thus: Bioavailability in dogs. It is filed as ADME, organism-based, Canis lupus familiaris. As to conditions: dog, in vivo; read-out: Bioavailabiility.
Data set [12] addresses Neuropeptide Y receptor type 4 (Rattus norvegicus, UniProt Q63447). The data set can be described thus: The compound was tested for the binding affinity against Neuropeptide Y receptor type 4.
The target in data set [13] is T6, Neuropeptide Y receptor type 2 (Rattus norvegicus, UniProt Q9ERC0).
T6 sequence (Q9ERC0 whole entry): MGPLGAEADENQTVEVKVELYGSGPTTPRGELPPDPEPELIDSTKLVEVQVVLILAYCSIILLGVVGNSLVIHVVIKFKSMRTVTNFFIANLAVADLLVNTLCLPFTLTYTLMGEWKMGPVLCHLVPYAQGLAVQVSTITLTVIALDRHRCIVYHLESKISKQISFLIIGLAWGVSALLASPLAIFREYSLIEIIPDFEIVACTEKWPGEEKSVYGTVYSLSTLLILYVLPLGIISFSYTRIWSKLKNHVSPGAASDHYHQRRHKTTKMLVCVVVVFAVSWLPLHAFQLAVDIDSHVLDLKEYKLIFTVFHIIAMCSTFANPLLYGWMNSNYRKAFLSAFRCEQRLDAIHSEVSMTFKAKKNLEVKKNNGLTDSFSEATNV
Description: The compound was tested for the binding affinity against Neuropeptide Y receptor type 2.

Data set [14] addresses T5, Neuropeptide Y receptor type 1. The data set can be described thus: The compound was tested for the binding affinity against NPY1 (Neuropeptide Y receptor type 1).
Data set [15] relates to Rhesus monkey. The data set can be described thus: Effective dose to stimulate lipolysis in Rhesus monkeys (iv). It is filed as functional, Cercopithecidae. As to conditions: Macaca mulatta.
Data set [16] in a line: Oral bioavailability in rat. As to conditions: in vivo. It is filed as ADME, organism-based.
The nature of data set [17]: Bioavailability in rat. As to conditions: in vivo, read-out: Bioavailabiility. The format is ADME, organism-based.
For data set [18], the system named is Rattus norvegicus. The data set can be described thus: Ability to inhibit the food intake of Sprague-Dawley rats at 30 mg/kg after intraperitoneal administration. It is filed as functional. The settings on record: ip.

Sequence of Neuropeptide Y receptor type 4 (Q63447 whole entry): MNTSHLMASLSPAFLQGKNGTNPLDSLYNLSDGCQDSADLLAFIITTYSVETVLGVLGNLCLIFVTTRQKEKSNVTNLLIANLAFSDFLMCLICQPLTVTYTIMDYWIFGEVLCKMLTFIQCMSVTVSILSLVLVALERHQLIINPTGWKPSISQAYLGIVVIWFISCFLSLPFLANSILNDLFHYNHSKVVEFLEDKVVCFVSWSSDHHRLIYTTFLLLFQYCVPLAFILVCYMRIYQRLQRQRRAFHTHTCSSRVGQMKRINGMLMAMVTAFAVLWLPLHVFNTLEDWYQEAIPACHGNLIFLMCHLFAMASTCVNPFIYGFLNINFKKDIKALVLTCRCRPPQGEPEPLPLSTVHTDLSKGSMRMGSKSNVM

For the compound `CCCCNC(=O)[C@@H]1Cc2ccccc2N1C(=O)CC(N)CC` (some centres not stated), affinity in data set [1] was put at a Ki of 7 nM.
As to `CS(=O)(=O)Nc1cc([C@@H](O)CN[C@H](Cc2cccc(Cl)c2)c2ccc(OC(F)F)cc2)ccc1O`, the Ki in data set [2] worked out at 9 nM.
In data set [3], `CC[C@H]1CC[C@@](c2cccc(OCOC)c2)(N2CCN(c3ccccc3)CC2)CC1` gave an IC50 of 39 nM.
In the case of `COc1ccc(-c2cc(NC(=O)CC34CCCC3Cc3ccccc3C4)[nH]n2)cc1OC` (configuration not stated), the IC50 in [4] turned out to be 2.3 nM.
In the case of `CCCCCCP(=O)(O)COc1ccc(C[C@@H](C)NC[C@H](O)COc2ccc(O)c3c2CCC(=O)N3)cc1`, the EC50 in data set [5] was < 300 nM. Moreover, in data set [6], the Intrinsic activity was > 80%.
In [7], `CCCCCCNC(=O)Nc1ccc(S(=O)(=O)Nc2ccc(CCNC[C@H](O)COc3ccc(O)cc3)cc2)cc1` [L-755507] gave a bioavailability of 1%.
`O=S(=O)(Nc1ccc(CCNC[C@H](O)COc2cccnc2)cc1)c1ccc(I)cc1` [L-749372] gave an ED50 in data set [8] of 2 mg/kg. Besides, the bioavailability in [9] was determined as 47%.
`Clc1ccc(OCc2nc3c(OCCCN4CCCCC4)cccc3n2CCCC2CCCNC2)cc1` (configuration not stated) showed an IC50 in data set [10] of 1.7 nM.
Consider `O=S(=O)(Nc1ccc(CCNC[C@H](O)c2cccnc2)cc1)c1ccc(I)cc1`, for which the bioavailability in data set [11] stood at 51%.
Regarding `O=C(CN1CCC(n2c(=O)[nH]c3ccccc32)CC1)Nc1ccc2c(c1)-c1ccccc1C2=O`, the half-maximal inhibitory concentration (IC50) in data set [12], in data set [13] and in [14] was > 5000 nM throughout.
In turn, `Nc1ccc(OC[C@@H](O)CNCCc2ccc(NS(=O)(=O)c3ccc(I)cc3)cc2)cn1` showed an ED50 in [15] of 0.8 mg/kg.
On to `COc1ccc(N(C(=O)CN2C(=O)C(Cc3n[nH]c4ccccc34)C(=O)N(c3ccccc3)c3ccccc32)C(C)C)cc1` (configuration not stated), for which the bioavailability in data set [16] came out at 8%.
In data set [4], `Cc1cc(N2CCCC2)cc(/C=C/c2cccc(C(F)(F)F)c2)n1` displayed an IC50 of 4.1 nM.
Consider `CC(C)c1ccc(S(=O)(=O)Nc2ccc(CCNC[C@H](O)COc3ccc(N)nc3)cc2)cc1`, for which the figures for the bioavailability in data set [17] and in data set [9] were 4% and 47%, respectively. Moreover, in [9], the F was determined as 41%.
Compound `COc1ccc(-c2cc(NC(=O)Cc3ccc4ccccc4c3)[nH]n2)cc1OC` showed an IC50 in data set [4] of 8.3 nM.
In turn, `CN(C)CCCNc1nc(NC[C@H]2CC[C@H](CNS(=O)(=O)c3cccc4ccccc34)CC2)nc2ccccc12` displayed an inhibition in vivo at 30 mg/kg in data set [18] of 96%.
As for `CC(C)(Cc1ccc(Oc2ccc(C(N)=O)cn2)cc1)NC[C@H](O)COc1cccc2[nH]c(=O)[nH]c12`, the EC50 in data set [2] is 30 nM.
As to `C[C@H](Cc1ccc(OCP(=O)(O)c2ccccc2)cc1)NC[C@H](O)COc1ccc(O)c(NS(C)(=O)=O)c1`, the EC50 in data set [5] is < 300 nM. Also, the Intrinsic activity in [6] is > 80%.
For the compound `Cn1c(C(=O)O)cc2cc(OCCNC[C@H](O)c3ccc(N)nc3)ccc21`, in data set [17], the bioavailability is < 10%. For the same compound, it took 300 nM to reach a half-maximal effect in data set [2] (EC50).
